From PubChem BioAssay (NCI)
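Values below derive from 48-hour exposures of cells grown in 96-well plates, with endpoints linearly interpolated between the two concentrations bracketing the appropriate inhibition level. Abbreviation: GI50, concentration required for 50% inhibition of growth. TGI is the concentration that stops growth completely.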

Key:
Assay in all cases: NCI anticancer screen, dose series, 48 h
[1] = tested on: 786-0 renal
[2] = tested on: A498 renal
[3] = tested on: A549 NSCLC
[4] = tested on: ACHN renal
[5] = tested on: BT-549 breast
[6] = tested on: CAKI-1 renal
[7] = tested on: CCRF-CEM leukemia
[8] = tested on: COLO 205 colon
[9] = tested on: DU-145 prostate
[10] = tested on: EKVX NSCLC
[11] = tested on: HCC-2998 colon
[12] = tested on: HCT-116 colon
[13] = tested on: HCT-15 colon
[14] = tested on: HL-60(TB) leukemia
[15] = tested on: HOP-62 NSCLC
[16] = tested on: HOP-92 NSCLC
[17] = tested on: HS 578T breast
[18] = tested on: HT29 colon
[19] = tested on: IGROV1 ovarian
[20] = tested on: K-562 leukemia
[21] = tested on: KM12 colon
[22] = tested on: LOX IMVI melanoma
[23] = tested on: M14 melanoma
[24] = tested on: MALME-3M melanoma
[25] = tested on: MCF7 breast
[26] = tested on: MDA-MB-231 breast
[27] = tested on: MDA-MB-435
[28] = tested on: MOLT-4 leukemia
[29] = tested on: NCI-H226 lung
[30] = tested on: NCI-H23 lung
[31] = tested on: NCI-H460 lung
[32] = tested on: NCI-H522 lung
[33] = tested on: NCI/ADR-RES ovarian
[34] = tested on: OVCAR-3 ovarian
[35] = tested on: OVCAR-4 ovarian
[36] = tested on: OVCAR-5 ovarian
[37] = tested on: OVCAR-8 ovarian
[38] = tested on: PC-3 prostate
[39] = tested on: RPMI-8226 leukemia
[40] = tested on: RXF 393 renal
[41] = tested on: SF-268 CNS
[42] = tested on: SF-295 CNS
[43] = tested on: SF-539 CNS
[44] = tested on: SK-MEL-2 melanoma
[45] = tested on: SK-MEL-28 melanoma
[46] = tested on: SK-MEL-5 melanoma
[47] = tested on: SK-OV-3 ovarian
[48] = tested on: SN12C renal
[49] = tested on: SNB-19 CNS
[50] = tested on: SNB-75 CNS
[51] = tested on: SR leukemia
[52] = tested on: SW-620 colon
[53] = tested on: T-47D breast
[54] = tested on: TK-10 renal
[55] = tested on: U251 CNS
[56] = tested on: UACC-257 melanoma
[57] = tested on: UACC-62 melanoma
[58] = tested on: UO-31 renal

`COc1ccc(-c2nn(-c3cccc(Cl)c3)cc2-c2cc(-c3cccs3)[nH]c(=S)n2)cc1` was tested, and the GI50 [1] was 4.18 µM, the TGI [1] was > 100 µM and the GI50 [2] was 3.01 µM. The TGI [2] was 17 µM, the GI50 [3] was 2.29 µM and the TGI [3] was 16.5 µM. The GI50 [4] was 4.05 µM, the TGI [4] was > 100 µM and the GI50 [5] was 3.18 µM. The TGI [5] was 15.9 µM, the GI50 [6] was 3.03 µM and the TGI [6] was 8.68 µM. The GI50 [7] was 2.8 µM, the TGI [7] was > 100 µM and the GI50 [8] was 2.35 µM. For the same compound, the TGI [8] was 5.59 µM, the GI50 [9] was 5.49 µM and the TGI [9] was 72.5 µM. It also gave a GI50 [10] of 1.93 µM, a TGI [10] of 21.7 µM and a GI50 [11] of 4.03 µM. It also gave a TGI [11] of 16.4 µM, a GI50 [12] of 2.38 µM and a TGI [12] of 11.2 µM. For the same compound, the GI50 [13] was 3.69 µM, the TGI [13] was > 100 µM and the GI50 [14] was 3.49 µM. It also gave a TGI [14] of 13.2 µM, a GI50 [15] of 7.14 µM and a TGI [15] of 22.1 µM. The GI50 [16] was 2.2 µM, the TGI [16] was 10.8 µM and the GI50 [17] was 4.26 µM. The TGI [17] was > 100 µM, the GI50 [18] was 3.82 µM and the TGI [18] was 13 µM. The GI50 [19] was 3.61 µM, the TGI [19] was 15.3 µM and the GI50 [20] was 2.91 µM. For the same compound, the TGI [20] was > 100 µM, the GI50 [21] was 3.67 µM and the TGI [21] was 14.4 µM. It also gave a GI50 [22] of 3.56 µM, a TGI [22] of 13.8 µM and a GI50 [23] of 2.81 µM. It also gave a TGI [23] of 14 µM, a GI50 [24] of 3.49 µM and a TGI [24] of 15.8 µM. For the same compound, the GI50 [25] was 3.02 µM, the TGI [25] was 33.4 µM and the GI50 [26] was 3.52 µM. It also gave a TGI [26] of 26 µM, a GI50 [27] of 3.13 µM and a TGI [27] of 19 µM. It also gave a GI50 [28] of 3.03 µM, a TGI [28] of 25.2 µM and a GI50 [29] of 3.16 µM. The TGI [29] was 54.4 µM, the GI50 [30] was 3.43 µM and the TGI [30] was 16.2 µM. The GI50 [31] was 3.01 µM, the TGI [31] was 11 µM and the GI50 [32] was 2.54 µM. For the same compound, the TGI [32] was 8.86 µM, the GI50 [33] was 4.77 µM and the TGI [33] was 41.8 µM. The GI50 [34] was 3.04 µM, the TGI [34] was 9.42 µM and the GI50 [35] was 3.47 µM. For the same compound, the TGI [35] was > 100 µM, the GI50 [36] was 6.38 µM and the TGI [36] was > 100 µM. For the same compound, the GI50 [37] was 3.15 µM, the TGI [37] was > 100 µM and the GI50 [38] was 3.09 µM. For the same compound, the TGI [38] was > 100 µM, the GI50 [39] was 2.42 µM and the TGI [39] was 10.9 µM. For the same compound, the GI50 [40] was 3.76 µM, the TGI [40] was 19.5 µM and the GI50 [41] was 4.52 µM. For the same compound, the TGI [41] was 73.6 µM, the GI50 [42] was 2.07 µM and the TGI [42] was 7.09 µM. For the same compound, the GI50 [43] was 4.7 µM, the TGI [43] was 19.7 µM and the GI50 [44] was 2.87 µM. It also gave a TGI [44] of 6.9 µM, a GI50 [45] of 3.93 µM and a TGI [45] of 15.7 µM. It also gave a GI50 [46] of 2.93 µM, a TGI [46] of 10.9 µM and a GI50 [47] of 5.91 µM. For the same compound, the TGI [47] was 36.8 µM, the GI50 [48] was 3.92 µM and the TGI [48] was > 100 µM. For the same compound, the GI50 [49] was 4.93 µM, the TGI [49] was > 100 µM and the GI50 [50] was 3.49 µM. It also gave a TGI [50] of 25.6 µM, a GI50 [51] of 4 µM and a TGI [51] of 31.9 µM. It also gave a GI50 [52] of 3.79 µM, a TGI [52] of 22.3 µM and a GI50 [53] of 4.16 µM. It also gave a TGI [53] of 34.6 µM, a GI50 [54] of 4.55 µM and a TGI [54] of 32.8 µM. It also gave a GI50 [55] of 2.6 µM, a TGI [55] of 12.4 µM and a GI50 [56] of 3.06 µM. The TGI [56] was 18 µM, the GI50 [57] was 2.78 µM and the TGI [57] was 19.2 µM. For the same compound, the GI50 [58] was 2.82 µM and the TGI [58] was 26.5 µM.
In the case of `O=C(Oc1cccc(F)c1OC(=O)c1cccc(O)c1)c1cccc(O)c1`, the GI50 [1] is reported as 37 µM, the TGI [1] is reported as > 100 µM and the GI50 [2] is reported as > 100 µM. The TGI [2] was > 100 µM, the GI50 [3] was 24.6 µM and the TGI [3] was > 100 µM. The GI50 [4] was 23.6 µM, the TGI [4] was > 100 µM and the GI50 [5] was 24.4 µM. For the same compound, the TGI [5] was > 100 µM, the GI50 [6] was 7.47 µM and the TGI [6] was > 100 µM. The GI50 [8] was 24.4 µM, the TGI [8] was 73.7 µM and the GI50 [9] was 44.7 µM. For the same compound, the TGI [9] was > 100 µM, the GI50 [10] was 58.7 µM and the TGI [10] was > 100 µM. The GI50 [11] was 27.5 µM, the TGI [11] was 84.5 µM and the GI50 [12] was 20.2 µM. The TGI [12] was > 100 µM, the GI50 [13] was 15.3 µM and the TGI [13] was > 100 µM. For the same compound, the GI50 [14] was 4.28 µM, the TGI [14] was 72.3 µM and the GI50 [15] was 50.7 µM. The TGI [15] was > 100 µM, the GI50 [16] was 46.6 µM and the TGI [16] was > 100 µM. For the same compound, the GI50 [17] was > 100 µM, the TGI [17] was > 100 µM and the GI50 [18] was 41.8 µM. The TGI [18] was > 100 µM, the GI50 [19] was 7.47 µM and the TGI [19] was > 100 µM. The GI50 [20] was 38 µM, the TGI [20] was > 100 µM and the GI50 [21] was 23.1 µM. The TGI [21] was > 100 µM, the GI50 [22] was 13 µM and the TGI [22] was > 100 µM. For the same compound, the GI50 [23] was 34.1 µM, the TGI [23] was > 100 µM and the GI50 [24] was > 100 µM. For the same compound, the TGI [24] was > 100 µM, the GI50 [25] was 34.9 µM and the TGI [25] was > 100 µM. The GI50 [26] was > 100 µM, the TGI [26] was > 100 µM and the GI50 [27] was 66.7 µM. For the same compound, the TGI [27] was > 100 µM, the GI50 [28] was 15.9 µM and the TGI [28] was > 100 µM. For the same compound, the GI50 [29] was 45.3 µM, the TGI [29] was > 100 µM and the GI50 [30] was 26.9 µM. For the same compound, the TGI [30] was > 100 µM, the GI50 [31] was 11.6 µM and the TGI [31] was > 100 µM. The GI50 [32] was 13.4 µM, the TGI [32] was 48.8 µM and the GI50 [33] was 10.3 µM. For the same compound, the TGI [33] was 77.6 µM, the GI50 [34] was 4.82 µM and the TGI [34] was 45.7 µM. For the same compound, the GI50 [35] was 15.2 µM, the TGI [35] was > 100 µM and the GI50 [36] was > 100 µM. The TGI [36] was > 100 µM, the GI50 [37] was 22.8 µM and the TGI [37] was > 100 µM. The GI50 [38] was 52.9 µM, the TGI [38] was > 100 µM and the GI50 [39] was 14.5 µM. For the same compound, the TGI [39] was > 100 µM, the GI50 [40] was 12.1 µM and the TGI [40] was 73.6 µM. The GI50 [41] was 11.2 µM, the TGI [41] was > 100 µM and the GI50 [42] was 36.1 µM. The TGI [42] was > 100 µM, the GI50 [43] was 16.9 µM and the TGI [43] was > 100 µM. The GI50 [44] was > 100 µM, the TGI [44] was > 100 µM and the GI50 [45] was 80.1 µM. The TGI [45] was > 100 µM, the GI50 [46] was 6.9 µM and the TGI [46] was > 100 µM. For the same compound, the GI50 [47] was 84 µM, the TGI [47] was > 100 µM and the GI50 [48] was 56.6 µM. For the same compound, the TGI [48] was > 100 µM, the GI50 [49] was 99.6 µM and the TGI [49] was > 100 µM. For the same compound, the GI50 [50] was 35.5 µM, the TGI [50] was > 100 µM and the GI50 [51] was 7.91 µM. The TGI [51] was > 100 µM, the GI50 [52] was 37.4 µM and the TGI [52] was > 100 µM. It also gave a GI50 [53] of 23.1 µM, a TGI [53] of 79.1 µM and a GI50 [54] of 98.6 µM. For the same compound, the TGI [54] was > 100 µM, the GI50 [55] was 17.8 µM and the TGI [55] was > 100 µM. For the same compound, the GI50 [56] was 39.8 µM, the TGI [56] was > 100 µM and the GI50 [57] was 40.8 µM. For the same compound, the TGI [57] was > 100 µM, the GI50 [58] was 5.56 µM and the TGI [58] was > 100 µM.
